Data on four cell lines can be found in the supplement of paper PMC10307832.

Assay in all cases: relative viability (nuclei count vs DMSO), 5 days (fraction); higher = more cells survive
Compound in the experiment “TPCA-1 + Pemetrexed”: C1=CC(=CC=C1C2=CC(=C(S2)NC(=O)N)C(=O)N)F [TPCA-1] + Nc1nc2[nH]cc(CCc3ccc(C(=O)N[C@@H](CCC(=O)O)C(=O)O)cc3)c2c(=O)[nH]1 [Pemetrexed] (partner 0.2 µM)
In outline:
(§1)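 Lung cancer cell lines, seeded in 1536-well plates, were treated the following day by pin tool with a single drug or with five library-drug doses (not always all listed) in √10 steps on top of a fixed anchor-drug dose. Cells were fixed and nuclei stained in one step after 5 days, and nuclei were counted. Relative viability is the nuclei count for treated wells divided by that for vehicle wells, reported as medians of duplicate plates.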

Compound in experiment [1]: C1/C(=C\C2=CC=CS2)/C(=O)/C(=C/C3=CC=CS3)/C1 + C[C@]1(O)C[C@@H](c2nc(-c3ccc4ccc(-c5ccccc5)nc4c3)c3c(N)nccn32)C1 [Linsitinib] (partner 1 µM)
In short, it runs like this: as §1

Compound in experiment [2]: C1/C(=C\C2=CC=CS2)/C(=O)/C(=C/C3=CC=CS3)/C1 + CC(C)C[C@H](NC(=O)[C@H](Cc1ccccc1)NC(=O)c1cnccn1)B(O)O [Bortezomib] (partner 0.002 µM)
In short, it runs like this: as §1

Compound in the experiment “Lestaurtinib + OSI-027”: C[C@]12O[C@H](C[C@]1(O)CO)n1c3ccccc3c3c4c(c5c6ccccc6n2c5c31)CNC4=O [Lestaurtinib] + COc1cccc2cc(-c3nc([C@H]4CC[C@H](C(=O)O)CC4)n4ncnc(N)c34)[nH]c12 [OSI-027] (partner 0.5 µM)
In short, it runs like this:
as §1

For HCC-78, the relative viability in the experiment with TPCA-1 + Pemetrexed (first compound 0.04 µM) turned out to be 0.919; with TPCA-1 + Pemetrexed (first compound 0.1265 µM), 0.911; with TPCA-1 + Pemetrexed (first compound 0.4 µM), 0.932; with TPCA-1 + Pemetrexed (first compound 1.265 µM), 0.885; in the experiment with TPCA-1 + Pemetrexed (first compound 4 µM) it was 0.9; in experiment [1] (first compound 0.2 µM), 0.649. For the same cell line, the relative viability in experiment [1] (first compound 0.6325 µM) worked out at 0.554; in experiment [1] (first compound 2 µM), 0.57; in experiment [1] (first compound 6.325 µM) it was 0.535; in experiment [1] (first compound 20 µM), 0.496; in experiment [2] (first compound 0.2 µM), 0.623; in experiment [2] (first compound 0.6325 µM) it was 0.464. Also, the relative viability amounted to 0.534 in experiment [2] (first compound 2 µM); 0.463 in experiment [2] (first compound 6.325 µM); 0.301 in experiment [2] (first compound 20 µM); 0.34 in the experiment with Lestaurtinib + OSI-027 (first compound 0.005 µM); 0.417 in the experiment with Lestaurtinib + OSI-027 (first compound 0.01581 µM); 0.323 with Lestaurtinib + OSI-027 (first compound 0.05 µM). For the same cell line, the results for the relative viability with Lestaurtinib + OSI-027 (first compound 0.1581 µM) and with Lestaurtinib + OSI-027 (first compound 0.5 µM) were 0.381 and 0.29, respectively.

As for HCC-366, the relative viability in the experiment with TPCA-1 + Pemetrexed (first compound 0.1265 µM) worked out at 0.17; in the experiment with TPCA-1 + Pemetrexed (first compound 0.4 µM), 0.155; in the experiment with TPCA-1 + Pemetrexed (first compound 1.265 µM), 0.116; in the experiment with TPCA-1 + Pemetrexed (first compound 4 µM), 0.145; in experiment [1] (first compound 0.2 µM), 0.701; in experiment [1] (first compound 0.6325 µM) it was 0.574. In addition, the relative viability came out at 0.647 in experiment [1] (first compound 2 µM); 0.467 in experiment [1] (first compound 6.325 µM); 0.6 in experiment [1] (first compound 20 µM); 1.03 in experiment [2] (first compound 0.2 µM); 1.09 in experiment [2] (first compound 0.6325 µM); 1.07 in experiment [2] (first compound 2 µM). Moreover, the relative viability came to 0.893 in experiment [2] (first compound 6.325 µM); 1.07 in experiment [2] (first compound 20 µM); 1.03 in the experiment with Lestaurtinib + OSI-027 (first compound 0.005 µM); 1.03 in the experiment with Lestaurtinib + OSI-027 (first compound 0.01581 µM); 0.827 in the experiment with Lestaurtinib + OSI-027 (first compound 0.05 µM); 0.353 with Lestaurtinib + OSI-027 (first compound 0.1581 µM). In the experiment with Lestaurtinib + OSI-027 (first compound 0.5 µM), the relative viability turned out to be 0.198.

For HCC-827, the relative viability with TPCA-1 + Pemetrexed (first compound 0.04 µM) was determined as 0.252; with TPCA-1 + Pemetrexed (first compound 0.1265 µM), 0.267; with TPCA-1 + Pemetrexed (first compound 0.4 µM), 0.281; with TPCA-1 + Pemetrexed (first compound 1.265 µM), 0.256; with TPCA-1 + Pemetrexed (first compound 4 µM), 0.276; in experiment [1] (first compound 0.2 µM), 1.05. Moreover, the relative viability stood at 0.953 in experiment [1] (first compound 0.6325 µM); 0.923 in experiment [1] (first compound 2 µM); 0.929 in experiment [1] (first compound 6.325 µM); 0.903 in experiment [1] (first compound 20 µM); 1.1 in experiment [2] (first compound 0.2 µM); 1.07 in experiment [2] (first compound 0.6325 µM). Besides, the relative viability in experiment [2] (first compound 2 µM) worked out at 0.993; in experiment [2] (first compound 6.325 µM), 0.84; in experiment [2] (first compound 20 µM), 1.05; with Lestaurtinib + OSI-027 (first compound 0.005 µM), 0.781; with Lestaurtinib + OSI-027 (first compound 0.01581 µM), 0.727; in the experiment with Lestaurtinib + OSI-027 (first compound 0.05 µM), 0.459. Also, the relative viability in the experiment with Lestaurtinib + OSI-027 (first compound 0.1581 µM) worked out at 0.626; with Lestaurtinib + OSI-027 (first compound 0.5 µM) it was 0.659.

On to HOP-62, for which the relative viability is 0.269 with TPCA-1 + Pemetrexed (first compound 0.04 µM); 0.346 with TPCA-1 + Pemetrexed (first compound 0.1265 µM); 0.299 with TPCA-1 + Pemetrexed (first compound 0.4 µM); 0.271 with TPCA-1 + Pemetrexed (first compound 1.265 µM); 0.216 in the experiment with TPCA-1 + Pemetrexed (first compound 4 µM); 1.09 in experiment [1] (first compound 0.2 µM). Moreover, the relative viability in experiment [1] (first compound 0.6325 µM) amounted to 0.879; in experiment [1] (first compound 2 µM), 0.853; in experiment [1] (first compound 6.325 µM), 0.982; in experiment [1] (first compound 20 µM) it was 0.815; in experiment [2] (first compound 0.2 µM) it was 0.619; in experiment [2] (first compound 0.6325 µM), 0.765. Besides, the relative viability in experiment [2] (first compound 2 µM) amounted to 0.94; in experiment [2] (first compound 6.325 µM), 0.979; in experiment [2] (first compound 20 µM), 0.634; with Lestaurtinib + OSI-027 (first compound 0.005 µM) it was 0.936; in the experiment with Lestaurtinib + OSI-027 (first compound 0.01581 µM), 0.958; in the experiment with Lestaurtinib + OSI-027 (first compound 0.05 µM), 0.498. Also, the relative viability in the experiment with Lestaurtinib + OSI-027 (first compound 0.1581 µM) amounted to 0.643; with Lestaurtinib + OSI-027 (first compound 0.5 µM), 0.415.
